Reference: ChEMBL document CHEMBL1221382, “N,O-diacyl-4-benzoyl-N-phenylhydroxylamines as photoinduced DNA cleaving agents” (Bioorg Med Chem Lett, 2010)

Experiments:
Format in all cases: nucleic-acid assay
[1] = tested on: Nucleic Acid; assay: Induction of DNA cleavage activity in Escherichia coli pBR322 assessed as relaxed circular form after 10 mins by gel electrophoresis in presence of UV light; set-up: concentration or dose not given beside the values
[2] = tested on: Nucleic Acid; assay: Induction of DNA cleavage activity in Escherichia coli pBR322 assessed as supercoiled circular form after 10 mins by gel electrophoresis in presence of UV light; set-up: concentration or dose not given beside the values
[3] = tested on: Nucleic Acid; assay: Ratio of relaxed circular form of Escherichia coli pBR322 to supercoiled circular form of Escherichia coli pBR322 in presence of bubbling with argon gas
[4] = tested on: Nucleic Acid; assay: Induction of DNA cleavage activity in Escherichia coli pBR322 assessed as relaxed circular form after 10 mins by gel electrophoresis in presence of 0.1 M NaN3 solution; set-up: scale not given: the % may be the effect or the level left
[5] = tested on: Nucleic Acid; assay: Ratio of relaxed circular form of Escherichia coli pBR322 to supercoiled circular form of Escherichia coli pBR322 in presence of ascorbic acid
[6] = tested on: Nucleic Acid; assay: Induction of DNA cleavage activity in Escherichia coli pBR322 assessed as supercoiled circular form after 10 mins by gel electrophoresis in presence of bubbling with argon gas
[7] = tested on: Nucleic Acid; assay: Induction of DNA cleavage activity in Escherichia coli pBR322 assessed as supercoiled circular form after 10 mins by gel electrophoresis in absence of UV light
[8] = tested on: Nucleic Acid; assay: Induction of DNA cleavage activity in Escherichia coli pBR322 assessed as supercoiled circular form after 10 mins by gel electrophoresis in presence of ascorbic acid
[9] = tested on: Nucleic Acid; assay: Induction of DNA cleavage activity in Escherichia coli pBR322 assessed as relaxed circular form after 10 mins by gel electrophoresis in presence of ascorbic acid; set-up: scale not given: the % may be the effect or the level left
[10] = tested on: Nucleic Acid; assay: Induction of DNA cleavage activity in Escherichia coli pBR322 assessed as relaxed circular form after 10 mins by gel electrophoresis in presence of bubbling with argon gas; set-up: scale not given: the % may be the effect or the level left
[11] = tested on: Nucleic Acid; assay: Induction of DNA cleavage activity in Escherichia coli pBR322 assessed as supercoiled circular form after 10 mins by gel electrophoresis in presence of 0.1 M NaN3 solution
[12] = tested on: Nucleic Acid; assay: Induction of DNA cleavage activity in Escherichia coli pBR322 assessed as relaxed circular form after 10 mins by gel electrophoresis in absence of UV light; set-up: scale not given: the % may be the effect or the level left
[13] = tested on: Nucleic Acid; assay: Ratio of relaxed circular form of Escherichia coli pBR322 to supercoiled circular form of Escherichia coli pBR322 in presence of 0.1 M NaN3 solution
[14] = tested on: Nucleic Acid; assay: Ratio of relaxed circular form of Escherichia coli pBR322 to supercoiled circular form of Escherichia coli pBR322 in absence of UV light

Work on O=C(ON(C(=O)c1ccccc1)c1ccc(C(=O)c2ccccc2)cc1)c1ccc(Cl)cc1 yielded an Activity [1] of 35% and an Activity [2] of 65%.

For COc1ccc(C(=O)N(OC(=O)c2ccccc2)c2ccc(C(=O)c3ccccc3)cc2)cc1OC, the Activity [1] was 77.1% and the Activity [2] was 22.9%.

Molecule O=C(ON(C(=O)c1ccccc1)c1ccc(C(=O)c2ccccc2)cc1)c1ccc(F)cc1 has an Activity [1] of 62.9% and an Activity [2] of 37.1%.

Work on O=C(ON(C(=O)c1ccccc1)c1ccc(C(=O)c2ccccc2)cc1)c1ccc([N+](=O)[O-])cc1 yielded an Activity [1] of 43.4% and an Activity [2] of 56.6%.

CC(=O)N(OC(=O)c1ccccc1)c1ccc(C(=O)c2ccccc2)cc1 was tested, and the Activity [1] was 92.2% and the Activity [2] was 7.83%.

Work on O=C(ON(C(=O)c1ccccc1)c1ccc(C(=O)c2ccccc2)cc1)c1ccccc1 yielded an Activity [1] of 86.8% and an Activity [2] of 13.2%.

In the case of O=C(ON(C(=O)c1ccc(F)cc1)c1ccc(C(=O)c2ccccc2)cc1)c1ccccc1, the Activity [1] is reported as 40.8% and the Activity [2] is reported as 59.2%.

For COc1ccc(C(=O)ON(C(=O)c2ccccc2)c2ccc(C(=O)c3ccccc3)cc2)cc1OC, the Activity [1] was 88.8% and the Activity [2] was 11.2%.

With O=C(ON(C(=O)c1ccc([N+](=O)[O-])cc1)c1ccc(C(=O)c2ccccc2)cc1)c1ccccc1 the Activity [1] was 36.3% and the Activity [2] was 63.7%.

In the case of CC(=O)ON(C(=O)c1ccccc1)c1ccc(C(=O)c2ccccc2)cc1, the Ratio [3] is reported as 2.79, the Activity [4] is reported as 76% and the Activity [1] is reported as 73.9%. It also gave a Ratio [5] of 0.31, an Activity [6] of 26.1% and an Activity [7] of 83.7%. It also gave an Activity [8] of 76.6%, an Activity [9] of 23.4% and an Activity [10] of 73%. It also gave an Activity [11] of 24.1%, an Activity [2] of 25.6% and an Activity [12] of 16.3%. It also gave a Ratio [13] of 3.18 and a Ratio [14] of 0.19.
